Test results as given in patent US9963703B2, “Compositions and methods for treating pancreatic cancer” (Autotelic LLC, priority 2016, dated 2018).
In the oligonucleotide strings, read from the 5' end, every base follows the letter of its sugar. An asterisk marks phosphorothioate; unmarked linkages are phosphodiester. Other units and linkages are bracketed, terminal groups are in braces. A string of capitals states the bases alone. d = 2'-deoxy (DNA)

Tested on: Patients With Advanced Tumors Known to Overproduce TGFβ2
Assay: Phase I/II dose escalation study P-001, safety (MTD, DLT, adverse events)
Format: in vivo, human
Protocol: Over-expression of transforming growth factor-beta 2 (TGF-β2) is associated with poor prognosis and plays a key role for malignant progression of various tumors by inducing proliferation, metastasis, angiogenesis and immunosuppression. P-001 trial of trabedersen-Safety and Tolerability of AP 12009 (trabedersen), Administered I.V. in Patients With Advanced Tumors Known to Overproduce TGFβ2, was evaluated to determine if treatment with trabedersen primed the tumors to subsequent chemotherapy.
In the instant study, the primary objective was to determine the Maximum Tolerated Dose (MTD) and the Dose Limited Toxicity (DLT) of two cycles of trabedersen administered intravenously (i.v.) for either 7 days every other week (i.e. 7 days on/7 days off) or for 4 days every other week (4 days on/10 days off). The secondary objective included assessment of antitumor activity of trabedersen administered intravenously for either 7 days every other week (i.e. 7 days on/7 days off) or for 4 days every other week (4 days on/10 days off).
The escalation scheme of this study aimed to determinate the MTD of two cycles of trabedersen (so called ‘core study period’) administered as a continuous i.v. infusion for 7 days every other week (7-days-on/7-days-off) or for 4 days every other week (4-days-on/10-days-off).
In general, it was planned to enroll a cohort of at least 3 evaluable patients per treatment group. For each cohort, the safety data obtained until end of the core study period (period for DLT-assessment, Cycle 1 and Cycle 2) were assessed in an interim analysis and evaluated by a Data and Safety Monitoring Board (DSMB). […] If 2 of these 3 patients experienced a DLT, the number of evaluable patients for the subsequent treatment group was increased to 6 for further evaluation of toxicity. Patients who were withdrawn from the study due to adverse events (AEs) attributed to DLT by the treating clinician, were not replaced but were used to determine the MTD and to evaluate the safety of the study drug. If patients were withdrawn due to other reasons, they were replaced until the treatment group was complete.
The MTD was determined according to the following procedure: If 2 out of 3 patients of 1 cohort experienced a DLT, 3 more patients were enrolled in the same treatment group. If at least 1 of these additional 3 patients also met the toxicity criteria for a DLT, the MTD for two cycles was determined; otherwise the dose escalation was continued upon agreement with the DSMB. MTD for two cycles was then defined as the dose at which no more than 2 out of 3, or 2 out of 6 patients of the same treatment group experienced a DLT. This procedure was followed until the MTD was reached.
The safety population comprised of 61 patients, representing all patients for whom at least once a trabedersen infusion was started. According to the protocol, the MTD was determined according to the following procedure: if […] out of 3 patients of one cohort experience dose-limiting toxicity, 3 more patients were enrolled in the same treatment group. If at least 1 more patient of this second cohort met the toxicity criteria, MTD for two cycles has been determined (otherwise escalation was continued). MTD for two cycles was then defined as the dose at which no more than 2 out of 3 or 2 out of 6 patients of the same treatment group experienced DLT. […] In the case that 2 patients of the first cohort experienced DLTs that clearly indicated attainment of the MTD, the second cohort could also be omitted. The described procedure was pursued until the MTD is reached.

[1] = 240 mg/m^2/day, 7-days-on and 7-days-off schedule
[2] = 4-days-on and 10-days-off schedule
[3] = 4-days-on, 10-days off schedule (N = 44)
[4] = 7-days-on and 7-days-off schedule
[5] = 7-days-on, 7-days off schedule (N = 17)

Substance: trabedersen: TGF-beta2 specific phosphorothioate antisense oligodeoxynucleotide with the sequence 5′-CGGCATGTCTATTTTGTA-3′ (SEQ ID No: 1) (antisense dC*dG*dG*dC*dA*dT*dG*dT*dC*dT*dA*dT*dT*dT*dT*dG*dT*dA)
- dose-limiting toxicity observed (140 mg/m^2/day, 4-days-on and 10-days-off schedule, one patient): Grade 3 upper gastrointestinal hemorrhage
- DLT: cases of Grade 3 maculopapular rash [1]: 1
- DLT: cases of Grade 3 thrombocytopenia [1]: 2
- number of patients who experienced a DLT [1]: 3
- patients with TEAEs that led to treatment discontinuation, % [2]: 15.9%
- patients with TEAEs that led to treatment discontinuation, number [2]: 7
- MTD (4-days-on and 10-days-off schedule, no MTD established, highest dose tested): > 330 mg/m^2/day
- Any SAE: % of patients with SAE [3]: 40.9%
- Any SAE: No. of SAEs [3]: 28
- Any SAE: No. of patients with SAE [3]: 18
- Ascites: No. of patients with SAE [3]: 0
- Cancer Pain: % of patients with SAE [3]: 4.5%
- Cancer Pain: No. of SAEs [3]: 2
- Cancer Pain: No. of patients with SAE [3]: 2
- Catheter related Infection: % of patients with SAE [3]: 2.3%
- Catheter related Infection: No. of SAEs [3]: 1
- Catheter related Infection: No. of patients with SAE [3]: 1
- Cholangitis: % of patients with SAE [3]: 6.8%
- Cholangitis: No. of SAEs [3]: 3
- Cholangitis: No. of patients with SAE [3]: 3
- Cholestasis: % of patients with SAE [3]: 2.3%
- Cholestasis: No. of SAEs [3]: 1
- Cholestasis: No. of patients with SAE [3]: 1
- GI hemorrhage: % of patients with SAE [3]: 2.3%
- GI hemorrhage: No. of SAEs [3]: 2
- GI hemorrhage: No. of patients with SAE [3]: 1
- Pneumonia: No. of patients with SAE [3]: 0
- Upper GI hemorrhage: % of patients with SAE [3]: 2.3%
- Upper GI hemorrhage: No. of SAEs [3]: 1
- Upper GI hemorrhage: No. of patients with SAE [3]: 1
- MTD [4]: 160 mg/m^2/day
- patients with TEAEs that led to treatment discontinuation, % [4]: 41.2%
- patients with TEAEs that led to treatment discontinuation, number [4]: 7
- Any SAE: % of patients with SAE [5]: 70.6%
- Any SAE: No. of SAEs [5]: 28
- Any SAE: No. of patients with SAE [5]: 12
- Ascites: % of patients with SAE [5]: 17.6%
- Ascites: No. of SAEs [5]: 3
- Ascites: No. of patients with SAE [5]: 3
- Cancer Pain: No. of patients with SAE [5]: 0
- Catheter related Infection: % of patients with SAE [5]: 11.8%
- Catheter related Infection: No. of SAEs [5]: 2
- Catheter related Infection: No. of patients with SAE [5]: 2
- Cholangitis: % of patients with SAE [5]: 5.9%
- Cholangitis: No. of SAEs [5]: 1
- Cholangitis: No. of patients with SAE [5]: 1
- Cholestasis: % of patients with SAE [5]: 5.9%
- Cholestasis: No. of SAEs [5]: 1
- Cholestasis: No. of patients with SAE [5]: 1
- GI hemorrhage: % of patients with SAE [5]: 11.8%
- GI hemorrhage: No. of SAEs [5]: 3
- GI hemorrhage: No. of patients with SAE [5]: 2
- Pneumonia: % of patients with SAE [5]: 17.6%
- Pneumonia: No. of SAEs [5]: 3
- Pneumonia: No. of patients with SAE [5]: 3
- Upper GI hemorrhage: % of patients with SAE [5]: 5.9%
- Upper GI hemorrhage: No. of SAEs [5]: 1
- Upper GI hemorrhage: No. of patients with SAE [5]: 1
- MTD (4 days on and days off regimen (N=27), not reached at highest dose): > 330 mg/m^2/d
- MTD (7 days on and 7 days off regimen (N=11)): 160 mg/m^2/d
- Any SAE: % of patients with SAE (Total (N = 61)): 49.2%
- Any SAE: No. of SAEs (Total (N = 61)): 56
- Any SAE: No. of patients with SAE (Total (N = 61)): 30
- Ascites: % of patients with SAE (Total (N = 61)): 4.9%
- Ascites: No. of SAEs (Total (N = 61)): 3
- Ascites: No. of patients with SAE (Total (N = 61)): 3
- Cancer Pain: % of patients with SAE (Total (N = 61)): 3.3%
- Cancer Pain: No. of SAEs (Total (N = 61)): 2
- Cancer Pain: No. of patients with SAE (Total (N = 61)): 2
- Catheter related Infection: % of patients with SAE (Total (N = 61)): 4.9%
- Catheter related Infection: No. of SAEs (Total (N = 61)): 3
- Catheter related Infection: No. of patients with SAE (Total (N = 61)): 3
- Cholangitis: % of patients with SAE (Total (N = 61)): 6.6%
- Cholangitis: No. of SAEs (Total (N = 61)): 4
- Cholangitis: No. of patients with SAE (Total (N = 61)): 4
- Cholestasis: % of patients with SAE (Total (N = 61)): 3.3%
- Cholestasis: No. of SAEs (Total (N = 61)): 2
- Cholestasis: No. of patients with SAE (Total (N = 61)): 2
- GI hemorrhage: % of patients with SAE (Total (N = 61)): 4.9%
- GI hemorrhage: No. of SAEs (Total (N = 61)): 3
- GI hemorrhage: No. of patients with SAE (Total (N = 61)): 3
- Pneumonia: % of patients with SAE (Total (N = 61)): 4.9%
- Pneumonia: No. of SAEs (Total (N = 61)): 3
- Pneumonia: No. of patients with SAE (Total (N = 61)): 3
- Upper GI hemorrhage: % of patients with SAE (Total (N = 61)): 3.3%
- Upper GI hemorrhage: No. of SAEs (Total (N = 61)): 2
- Upper GI hemorrhage: No. of patients with SAE (Total (N = 61)): 2
- number of patients for whom a DLT was proclaimed (all cohorts, 2 pancreatic carcinoma, 2 colorectal cancer): 4
- patients with TEAEs that led to treatment discontinuation, % (all patients): 23.0%
- patients with TEAEs that led to treatment discontinuation, number (all patients): 14
- total number of TEAEs that led to treatment discontinuation (all patients): 23
- patients with TEAEs that led to treatment discontinuation, % (colorectal cancer): 40.0%
- patients with TEAEs that led to treatment discontinuation, number (colorectal cancer): 2
- daily dose of MTD (initial 7-days-on and 7-days-off schedule): approx. 4 mg/kg/day
- patients with TEAEs that led to treatment discontinuation, % (melanoma): 15.8%
- patients with TEAEs that led to treatment discontinuation, number (melanoma): 3
- patients with TEAEs that led to treatment discontinuation, % (pancreatic cancer): 24.3%
- patients with TEAEs that led to treatment discontinuation, number (pancreatic cancer): 9
